In PubChem BioAssay AID1259408 (Genetic Toxicology Data Bank (GENE-TOX), 2018) one finds call and mutagenic call data, which are given here for 36 compounds.

Calls of active or inactive are those of the source. The rule behind the calls is not given here.

The data set relates to GENE-TOX genotoxicity assays, various organisms and cells. The data set can be described thus: GENE-TOX mutagenicity studies. Conditions: for call: Assay Type: In vivo carcinogenicity studies.
Setting [1] is: Species/Cell Type: Nonhuman, Assay Code: CCG+L, Evaluation Type: Evaluation A (Pre-1980).
Where [2] appears, read: Species/Cell Type: Mammalian polychromatic erythrocytes, Assay Type: Micronucleus test, chromosome aberrations, Assay Code: MNT+, Evaluation Type: Evaluation B (Post-1980).
[3] abbreviates: Species/Cell Type: Nonhuman, Assay Type: Sister-chromatid exchange (SCE) in vitro, Assay Code: SC2+D, Dose Response: With dose response, Evaluation Type: Evaluation B (Post-1980).
Setting [4] is: Species/Cell Type: Salmonella typhimurium (one or more of the five standard strains: TA98, TA100, TA1535, TA1537, and TA1538), Assay Type: Histidine reverse gene mutation, Ames assay, Assay Code: SAL+, Evaluation Type: Evaluation A (Pre-1980).
The mark [5] stands for this setting: Species/Cell Type: Mammalian polychromatic erythrocytes, Assay Type: Micronucleus test, chromosome aberrations, Assay Code: MNTT, Evaluation Type: Evaluation B (Post-1980).
Setting [6] is: Species/Cell Type: Nonhuman, Assay Code: CCG+, Evaluation Type: Evaluation A (Pre-1980).
The mark [7] stands for this setting: Species/Cell Type: Drosophila melanogaster, Assay Type: Sex-linked recessive lethal gene mutation, Assay Code: SRLT, Evaluation Type: Evaluation A (Pre-1980).
[8] abbreviates: Species/Cell Type: Salmonella typhimurium (one or more of the five standard strains: TA98, TA100, TA1535, TA1537, and TA1538), Assay Type: Histidine reverse gene mutation, Ames assay, Assay Code: SALT, Evaluation Type: Evaluation A (Pre-1980).
The mark [9] stands for this setting: Species/Cell Type: Drosophila melanogaster, Assay Type: Sex-linked recessive lethal gene mutation, Assay Code: SRL+, Evaluation Type: Evaluation A (Pre-1980).
Where [10] appears, read: Species/Cell Type: Bacillus subtilis (H17 vs M45), Assay Type: Rec-assay, spot test, DNA effects (bacterial DNA repair), Assay Code: REW-, Evaluation Type: Evaluation A (Pre-1980).
[11] abbreviates: Species/Cell Type: Salmonella typhimurium (one or more of the five standard strains: TA98, TA100, TA1535, TA1537, and TA1538), Assay Type: Histidine reverse gene mutation, Ames assay, Assay Code: SAL+*, Activation: With metabolic activation, Evaluation Type: Evaluation A (Pre-1980).
[12] abbreviates: Species/Cell Type: Nonhuman, Assay Type: Sister-chromatid exchange (SCE) in vitro, Assay Code: SC2+, Evaluation Type: Evaluation B (Post-1980).

On to `Cc1c2ccccc2c(CO)c2ccc3c(c12)C=C[C@@H](O)[C@@H]3O`, for which the call under setting [1] was “active; positive”.
Regarding `C=CCOc1ccccc1OCC(O)CNC(C)C` (centres undefined), the mutagenic call under setting [2] is “active; positive”.
Regarding `ClCCNCCCNc1c2ccccc2nc2ccccc12`, the mutagenic call (Species/Cell Type: Chinese hamster ovary (CHO) cells, Assay Type: Forward gene mutation at the HPRT locus, Assay Code: CHO+, Evaluation Type: Evaluation B (Post-1980)) is “active; positive”.
Regarding `Cc1cc(NC(=O)C2=C(O)c3ccccc3S(=O)(=O)N2C)no1`, the mutagenic call (Species/Cell Type: Human lymphocytes, Assay Type: Sister-chromatid exchange (SCE) in vivo, Assay Code: SCY+, Evaluation Type: Evaluation B (Post-1980)) was “active; positive”.
For `Cc1nc(-c2ccc([N+](=O)[O-])o2)cs1`, the mutagenic call is “active; positive” under setting [3] and “active; positive” under setting [4].
Turning to `CN1CCN(CC(=O)N2c3ccccc3C(=O)Nc3cccnc32)CC1`, the mutagenic call under setting [5] is “no conclusion”.
Turning to `CC(=O)O`, the mutagenic call was “inactive; negative” (Species/Cell Type: Human lymphocytes, Assay Type: Sister-chromatid exchange (SCE) in vitro, Assay Code: SCL-, Evaluation Type: Evaluation A (Pre-1980)); “inactive; negative” (Species/Cell Type: Human, Assay Type: Sister-chromatid exchange (SCE) in vitro, Assay Code: SC1-, Evaluation Type: Evaluation A (Pre-1980)); “inactive; negative” (Species/Cell Type: Salmonella typhimurium (one or more of the five standard strains: TA98, TA100, TA1535, TA1537, and TA1538), Assay Type: Histidine reverse gene mutation, Ames assay, Assay Code: SAL-, Evaluation Type: Evaluation A (Pre-1980)); “inactive; negative” (Species/Cell Type: Syrian hamster embryo (SA7/SHE) cells, Assay Type: Cell transformation, viral enhanced, Assay Code: CT7-, Evaluation Type: Evaluation A (Pre-1980)).
Take `Nc1ccc(Cc2ccc(N)cc2)cc1`: under setting [6], the call was “active; positive”. The mutagenic call (Species/Cell Type: Nonhuman, Assay Type: Sister-chromatid exchange (SCE) in vivo, Assay Code: SC3+, Evaluation Type: Evaluation B (Post-1980)) is “active; positive”.
With `CCN(CC)CCNc1ccc(COC(=O)c2ccco2)c2sc3ccccc3c(=O)c12`, under setting [4], the mutagenic call is “active; positive”.
In the case of `CN(C)c1ccc(C(=C2C=CC(=[N+](C)C)C=C2)c2ccc(N(C)C)cc2)cc1`, the mutagenic call was “active; positive” (Species/Cell Type: Bacillus subtilis (H17 vs M45), Assay Type: Rec-assay, spot test, DNA effects (bacterial DNA repair), Assay Code: REW+, Evaluation Type: Evaluation A (Pre-1980)); “no conclusion” (Species/Cell Type: Bacillus subtilis (H17 vs M45T), Assay Type: Rec-assay, spot test, DNA effects (bacterial DNA repair), Assay Code: REXT, Evaluation Type: Evaluation A (Pre-1980)); “no conclusion” under setting [7]; “inactive; negative” (Species/Cell Type: Saccharomyces cerevisiae, Assay Type: Mitotic recombination or gene conversion, Assay Code: YEH-, Evaluation Type: Evaluation A (Pre-1980)); “no conclusion” under setting [8].
With `Nc1nncs1`, the mutagenic call by setting is: (Species/Cell Type: Drosophila melanogaster, Assay Type: Aneuploidy, sex chromosome gain, chromosome aberrations, Assay Code: DAG+M, Evaluation Type: Evaluation A (Pre-1980)) “active; positive”; (Species/Cell Type: Drosophila melanogaster, Assay Type: Aneuploidy, whole sex chromosome loss, chromosome aberrations, Assay Code: DAC+M, Evaluation Type: Evaluation A (Pre-1980)) “active; positive”; (Species/Cell Type: Drosophila melanogaster, Sex: Male, Assay Type: Heritable translocation test, chromosome aberrations, Assay Code: DHTT, Evaluation Type: Evaluation A (Pre-1980)) “no conclusion”.
With `C[C@@H]1C(=O)OCC2=CCN3CC[C@@H](OC(=O)[C@@H](C)[C@@]1(C)O)[C@@H]23`, the mutagenic call runs as follows: under setting [9], “active; positive”; (Species/Cell Type: Drosophila melanogaster, Sex: Male, Assay Type: Heritable translocation test, chromosome aberrations, Assay Code: DHT+, Evaluation Type: Evaluation A (Pre-1980)) “active; positive”.
Consider `N=NN`, for which the mutagenic call under setting [9] is “active; positive”.
On to `C1=CC2OC2c2cc3ccc4ccccc4c3cc21` (centres undefined), for which the mutagenic call is “no conclusion” under setting [7] and “active; positive” (Species/Cell Type: Mouse prostate cells, Assay Type: Cell transformation, Assay Code: CTM+, Evaluation Type: Evaluation A (Pre-1980)).
For the compound `CC(=O)OCC1=C(C(=O)O)N2C(=O)[C@@H](NC(=O)Cc3cccs3)[C@H]2SC1`, the mutagenic call (Species/Cell Type: Escherichia coli polA (W3119 vs P3478), Assay Type: Rec-assay, DNA effects (bacterial DNA repair), Assay Code: RE1-, Evaluation Type: Evaluation A (Pre-1980)) was “inactive; negative”.
With `CCCCc1ccc(C(=O)O)nc1`, under setting [10], the mutagenic call was “inactive; negative”.
Consider `CC(=O)Nc1ccccc1O`, for which the mutagenic call (Species/Cell Type: Human, Assay Type: Sister-chromatid exchange (SCE) in vitro, Assay Code: SC1T, Evaluation Type: Evaluation B (Post-1980)) was “no conclusion”.
`CNC(=O)Nc1nc2ccccc2s1`: the mutagenic call (Species/Cell Type: Saccharomyces cerevisiae, Assay Type: Mitotic recombination or gene conversion, Assay Code: YEC-, Evaluation Type: Evaluation A (Pre-1980)) is “inactive; negative”.
For the compound `OC1c2cccc3ccc4cc5ccccc5c(c4c23)C1O` (centres undefined), the mutagenic call (Species/Cell Type: Chinese hamster lung (V79) cells, Assay Type: Forward gene mutation at the HPRT or ouabain locus, Assay Code: V79-, Evaluation Type: Evaluation A (Pre-1980)) was “inactive; negative”.
For the compound `CC1CCCN(N=O)C1` (centres undefined), the mutagenic call under setting [9] is “active; positive”; the mutagenic call (Species/Cell Type: Saccharomyces cerevisiae, Assay Type: Forward gene mutation, Assay Code: YEF+*, Activation: With metabolic activation, Evaluation Type: Evaluation A (Pre-1980)) is “active; positive”; the mutagenic call (Species/Cell Type: Saccharomyces cerevisiae, Assay Type: Reverse gene mutation, Assay Code: YER+*, Activation: With metabolic activation, Evaluation Type: Evaluation A (Pre-1980)) is “active; positive”; the mutagenic call under setting [11] is “active; positive”. Also, the call under setting [1] was “active; positive”.
On to `Cc1nc(N(C)C)nc(OC(=O)N(C)C)c1C`, for which the mutagenic call (Species/Cell Type: Aspergillus nidulans, Assay Type: Aneuploidy, chromosome aberrations, Assay Code: ASN-, Evaluation Type: Evaluation A (Pre-1980)) is “inactive; negative”.
As for `O[C@@H]1C=Cc2ccc3cc4ccccc4cc3c2[C@H]1O`, the mutagenic call was “inactive; negative” (Species/Cell Type: Chinese hamster lung (V79) cells, Assay Type: Forward gene mutation at the HPRT or ouabain locus, Assay Code: V79-*, Activation: With metabolic activation, Evaluation Type: Evaluation A (Pre-1980)); “active; positive” under setting [3]; “no conclusion” under setting [8].
In the case of `CCCCCCC(=O)O[C@H]1CC[C@H]2[C@@H]3CCC4=CC(=O)CC[C@]4(C)[C@H]3CC[C@]12C`, the mutagenic call (Species/Cell Type: Human, Sex: Male, Assay Type: Sperm morphology, Assay Code: SPH+, Evaluation Type: Evaluation A (Pre-1980)) was “active; positive”. The call under setting [6] was “active; positive”.
In the case of `O/C=C/Cc1ccc2c(c1)OCO2`, where the note is “Species/Cell Type: Human diploid fibroblasts, Assay Type: Unscheduled DNA synthesis (UDS) in vitro, DNA effects, Assay Code: UDH+, Evaluation Type: Evaluation A (Pre-1980)”, the mutagenic call is “active; positive”.
In the case of `CCCc1cc(=O)[nH]c(=S)[nH]1`, the call under setting [6] was “active; positive”.
Consider `S=C1NCCCN1`, for which, under setting [5], the mutagenic call is reported as “no conclusion”.
In the case of `Nc1ccc(Cl)c(N)c1`, the call under setting [6] was “active; positive”.
For `O.O.O.O.O.O.O.O.O.O=[N+]([O-])[O-].O=[N+]([O-])[O-].O=[N+]([O-])[O-].[Cr+3]`, the mutagenic call under setting [12] was “active; positive”.
For the compound `O=[N+]([O-])c1ccc(-c2nc(NCC(O)CO)c3ccccc3n2)s1` (centres undefined), the mutagenic call under setting [8] is on record as “no conclusion”.
Consider `NC(=O)N/N=C(/CCN1CCCCC1)c1ccc([N+](=O)[O-])o1`, for which the mutagenic call runs as follows: (Species/Cell Type: Escherichia coli WP2, Assay Type: Tryptophan reverse gene mutation, Assay Code: WP2+, Evaluation Type: Evaluation A (Pre-1980)) “active; positive”; (Species/Cell Type: Escherichia coli WP2 UVRA, Assay Type: Tryptophan reverse gene mutation, Assay Code: WPU+, Evaluation Type: Evaluation A (Pre-1980)) “active; positive”.
Regarding `OCCN1CCN(CCCN2c3ccccc3Sc3ccc(C(F)(F)F)cc32)CC1`, the mutagenic call under setting [2] was “active; positive”.
Turning to `CC(=O)OC/C=C(C)/C=C/C=C(C)/C=C/C1=C(C)CCCC1(C)C`, the mutagenic call is, setting by setting: (Species/Cell Type: Human, Assay Type: Sister-chromatid exchange (SCE) in vitro, Assay Code: SC1+, Evaluation Type: Evaluation B (Post-1980)) “active; positive”; (Species/Cell Type: Nonhuman, Assay Type: Sister-chromatid exchange (SCE) in vitro, Assay Code: SC2T, Evaluation Type: Evaluation B (Post-1980)) “no conclusion”.
With `COc1ccccc1N1CCN(c2ccc([N+](=O)[O-])c3no[n+]([O-])c23)CC1`, under setting [4], the mutagenic call is “active; positive”.
In the case of `[Cl][Pd][Cl]`, the mutagenic call under setting [10] was “inactive; negative”.
In the case of `CCCCOc1ccc(CC(=O)NOC(=O)CC)cc1`, the mutagenic call under setting [12] was “active; positive”.
`C/C=C1/C[C@@H](C)[C@](O)(CO)C(=O)OCC2=CCN3CC[C@@H](OC1=O)[C@@H]23`: the mutagenic call was “active; positive” under setting [9] and “active; positive” under setting [11].
